Measurements taken from patent US8623811B2, “Antimicrobial peptide, compositions, and methods of use” (Revance Therapeutics, Inc., priority 2007, dated 2014).

Key:
acne = test: Topical use in a patient with acne; type: in vivo, human; settings: continued use of the formulation for two years
Text: A person with a two-year history of acne uses topical 5% peptide (SEQ ID NO:5) formulation twice a day for 4 weeks. The cream formulation is composed of the excipients cetyl alcohol, isopropyl myristate, stearyl alcohol, butylated hydroxytolune, polyoxyethylene stearyl ether, polyoxyethylene stearyl ether, edetate disodium, and purified water.

[1] = test system: Tinea Pedis (Athlete's feet); test: Soak and topical use in a patient with Tinea Pedis; type: in vivo, human; settings: 0.05% peptide formulation for 5 years
Text: The cream formulation is composed of the excipients cetyl alcohol, isopropyl myristate, stearyl alcohol, butylated hydrosyxtoluene, polyoxyethylene stearyl ether, polyoxyethylene stearyl ether, edetate disodium, and purified water.

N=C(N)NCCC[C@H](NC(=O)[C@H](CCCNC(=N)N)NC(=O)[C@H](CCCNC(=N)N)NC(=O)[C@H](CCC(N)=O)NC(=O)[C@H](CCCNC(=N)N)NC(=O)[C@H](CCCNC(=N)N)NC(=O)[C@H](CCCCN)NC(=O)[C@H](CCCCN)NC(=O)[C@H](CCCNC(=N)N)NC(=O)CNC(=O)[C@H](CCCCN)NC(=O)[C@H](CCCCN)NC(=O)[C@H](CCCCN)NC(=O)[C@H](CCCCN)NC(=O)[C@H](CCCCN)NC(=O)[C@H](CCCCN)NC(=O)[C@H](CCCCN)NC(=O)[C@H](CCCCN)NC(=O)[C@H](CCCCN)NC(=O)[C@H](CCCCN)NC(=O)[C@H](CCCCN)NC(=O)[C@H](CCCCN)NC(=O)[C@H](CCCCN)NC(=O)[C@H](CCCCN)NC(=O)[C@H](CCCCN)NC(=O)CNC(=O)[C@H](CCCNC(=N)N)NC(=O)[C@H](CCCNC(=N)N)NC(=O)[C@H](CCCNC(=N)N)NC(=O)[C@H](CCC(N)=O)NC(=O)[C@H](CCCNC(=N)N)NC(=O)[C@H](CCCNC(=N)N)NC(=O)[C@H](CCCCN)NC(=O)[C@H](CCCCN)NC(=O)[C@@H](N)CCCNC(=N)N)C(=O)O [SEQ ID NO:5, Arg-Lys-Lys-Arg-Arg-Gln-Arg-Arg-Arg-Gly-(Lys)15-Gly-Arg-Lys-Lys-Arg-Arg-Gln-Arg-Arg-Arg]
adverse events on continued use (acne): no new breakouts or adverse events are observed | adverse event on continued use [1]: no further breakout or adverse event
